Patent publication US12384776B2, “Compounds and uses thereof” (Foghorn Therapeutics Inc., priority 2019, dated 2025)

How the values were obtained:
[1] = system: synovial sarcoma cell lines (SYO1, HS-SY-II, and ASKA); assay: Crystal violet growth assay in synovial sarcoma cell lines, Example 4; assay type: cell-based; conditions: for inhibition of the growth of the cells: synovial sarcoma cell lines SYO1, HS-SY-II, ASKA, day 14
Experimental: (§1) Procedure: Cells were seeded into 6-well or 12-well plates and were treated daily with a BRD9 degrader (Compound 1), a bromo-domain BRD9 binder (Compound 2), E3 ligase binder (lenalidomide), DMSO, or staurosporin (positive control for cell killing), at indicated concentrations. The number of cells was optimized for each cell line. Growth media was refreshed every 5 days. By day 14, medium was removed, cells were washed with PBS, and stained using 500 μL of 0.005% (w/v) crystal violet solution in 25% (v/v) methanol for at least 1 hour at room temperature. Subsequently plates were scanned on an Odyssey CLx Imaging system.

[2] = system: synovial sarcoma cell lines (SYO1, Yamato, HS-SY-II, and ASKA); assay: Growth of synovial sarcoma cell lines (IncuCyte confluency, crystal violet, colony imaging), Example 3; assay type: cell-based
Experimental: (§2) Cells were treated with DMSO or the BRD9 degrader, Compound 1, at indicated concentrations, and proliferation was monitored from day 7 to day 14 by measuring confluency over time using an IncuCyte live cell analysis system (FIG. 5). Growth medium and compounds were refreshed every 3-4 days.
(§3) Cells were seeded into 12-well plates and treated with DMSO, 1 μM BRD9 inhibitor, Compound 2 (also known as BI-7273, see Martin et al, J Med Chem. 59(10):4462-4475 (2016); see structure of compound 2 below), or 1 μM BRD9 degrader, Compound 1.
(§4) The number of cells was optimized for each cell line. Growth medium and compounds were refreshed every 3-5 days. SYO1, Yamato, A549, 293T and HS-SY-II cells were fixed and stained at day 11. ASKA cells were fixed and stained at day 23. Staining was done by incubation with crystal violet solution (0.5 g Crystal Violet, 27 ml 37% Formaldehyde, 100 mL 10×PBS, 10 mL Methanol, 863 dH20 to 1 L) for 30 min followed by 3× washes with water and drying the plates for at least 24 h at room temperature. Subsequently plates were scanned on an Odyssey CLx Imaging system (FIG. 6).
(§5) Cells were seeded into 96-well ultra low cluster plate (Costar, #7007) in 200 μL complete media and treated at day 2 with DMSO, Staurosporin, or BRD9 degarder, Compound 1, at indicated doses (FIG. 3C). Media and compounds were changed every 5 d and cell colonies were imaged at day 14.

[3] = system: non-synovial control cancer cell lines (293T, A549, G401); assay: Growth of non-synovial control cancer cell lines, Example 3; assay type: cell-based
Experimental: as §2, §3, §4, §5

[4] = system: non-synovial control cancer cell lines (RD, HCT116, and Calu6); assay: Crystal violet growth assay in non-synovial control cancer cell lines, Example 4; assay type: cell-based; conditions: day 14
Experimental: as §1

[5] = target: Nanoluciferase-BRD9 fusion protein (3×FLAG-NLuc-BRD9) in SYO-1 cells (Homo sapiens (Human), UniProt Q9H8M2); assay: SYO1 BRD9 NanoLuc degradation assay; assay type: cell-based; conditions: SYO-1 cells, 6 hours, Table 6A
How it was run: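 Degradation read as loss of NLuc signal after 6 h compound exposure (1 μM top final, 3-fold steps, 10 points, duplicates) in SYO-1 cells stably carrying 3×FLAG-NLuc-BRD9. Signal normalised between DMSO-treated cells and cells given 1 μM of a known BRD9 degrader.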

BRD9 bromodomain = BRD9 bromodomain (Homo sapiens (Human), UniProt Q9H8M2); assay: BRD9 bromodomain TR-FRET competition binding assay
Experimental: Procedure: His-Flag-BRD9 (P133-K239; Swiss Prot Q9H8M2; SEQ ID NO:1 mgsshhhhhhenlyfq/gdykddddkgslevlfqg/[…] […]) was cloned, expressed, purified, and then treated with TEV protease. Cleaved His tag was removed by purification. The binding of a biotinylated small molecule ligand of BRD9 was assessed via the LANCE® TR-FRET platform (PerkinElmer), and the compounds were assayed for inhibitory activity against this interaction.
Results: A mixture of biotinylated-ligand and SureLight™ Allophycocyanin-Streptavidin (APC-SA, PerkinElmer AD0201) in 50 mM HEPES (pH 7.4), 50 mM NaCl, 1 mM TCEP (pH 7), 0.01% (v/v) Tween-20, 0.01% (w/v) bovine serum albumin was added to a white 384-well PerkinElmer Proxiplate Plus plate. DMSO or 3-fold serially diluted compounds were then added to the Proxiplate followed by addition of Flag-BRD9. After a 10-minute incubation at room temperature, Eu—W1024 anti-FLAG (PerkinElmer, AD0273) was added. The final reaction mixture that contained 3.75 nM biotinylated ligand, 3 nM Flag-BRD9, 7.5 nM SureLight™ Allophycocyanin-Streptavidin, and 0.2 nM Eu—W1024 anti-FLAG was incubated at room temperature for 90 minutes.
The plates were then read on a PerkinElmer Envision plate reader to determine the ratio of emission at 665 nm over 615 nm. […]

SYO1 cells [6] = assay: Apoptosis assay (Annexin V-FITC Apoptosis Detection Kit); assay type: cell-based; conditions: 200 nM or 1 μM, 8 days, as compared to DMSO controls
Experimental: (§6) Procedure: SYO1 cells were treated for 8 or 13 days with DMSO, a BRD9 degrader (Compound 1) at 200 nM or 1 μM, or an E3 ligase binder (lenalidomide) at 200 nM. Compounds were refreshed every 5 days. Cell cycle analysis was performed using the Click-iT™ Plus EdU Flow Cytometry Assay (Invitrogen). The apoptosis assay was performed using the Annexin V-FITC Apoptosis Detection Kit (Sigma A9210). Assays were performed according to the manufacturer's protocol.

SYO1 cells [7] = assay: Cell cycle analysis (Click-iT Plus EdU Flow Cytometry Assay); assay type: cell-based; conditions: 200 nM or 1 μM, 8 or 13 days, as compared to DMSO and lenalidomide
Experimental: as §6

Chain of Nanoluciferase-BRD9 fusion protein (3×FLAG-NLuc-BRD9) in SYO-1 cells (Q9H8M2 whole entry, the tested form may be a part): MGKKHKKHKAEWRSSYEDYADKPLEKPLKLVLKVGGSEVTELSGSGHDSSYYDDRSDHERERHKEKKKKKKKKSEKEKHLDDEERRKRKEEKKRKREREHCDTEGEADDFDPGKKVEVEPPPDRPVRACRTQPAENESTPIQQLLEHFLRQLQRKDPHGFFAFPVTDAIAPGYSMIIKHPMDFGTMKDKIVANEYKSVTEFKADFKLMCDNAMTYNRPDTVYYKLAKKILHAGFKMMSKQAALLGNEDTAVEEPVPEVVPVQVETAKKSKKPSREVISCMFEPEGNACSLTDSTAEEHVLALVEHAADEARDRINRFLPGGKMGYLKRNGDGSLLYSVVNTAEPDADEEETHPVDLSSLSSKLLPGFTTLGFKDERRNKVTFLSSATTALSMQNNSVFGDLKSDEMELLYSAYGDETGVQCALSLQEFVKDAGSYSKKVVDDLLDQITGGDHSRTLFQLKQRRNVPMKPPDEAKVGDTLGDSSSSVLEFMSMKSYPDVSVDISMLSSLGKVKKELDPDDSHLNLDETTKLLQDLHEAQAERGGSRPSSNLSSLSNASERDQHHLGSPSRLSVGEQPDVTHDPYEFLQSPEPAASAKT
Chain of BRD9 bromodomain (Q9H8M2 133-239): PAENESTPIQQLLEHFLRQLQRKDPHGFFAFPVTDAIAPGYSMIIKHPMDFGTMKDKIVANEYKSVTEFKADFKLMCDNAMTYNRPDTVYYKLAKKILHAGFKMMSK

## COc1cc(-c2cn(C)c(=O)c3cnccc23)cc(OC)c1CN(C)C [Compound 2]
[1]
  inhibition of the growth of the cells: inhibition of the growth of the cells
[2]
  inhibition of the growth of the cells: inhibition of the growth of the cells
[3]
  inhibition of the growth of the cells: does not result in inhibition of the growth
[4]
  inhibition of the growth of the cells: did not result in inhibition of the growth

## COc1cc(-c2cn(C)c(=O)c3c2CN(C(=O)NCCOCCOCCNc2cccc4c2C(=O)N(C2CCC(=O)NC2=O)C4=O)CC3)cc(OC)c1CN(C)C (stereo not shown) [Compound D23, 8-[4-[(dimethylamino)methyl]-3,5-dimethoxyphenyl]-N-[2-[2-(2-[[2-(2,6-dioxopiperidin-3-yl)-1,3-dioxoisoindol-4-yl]amino]ethoxy)ethoxy]ethyl]-6-methyl-5-oxo-3,4-dihydro-1H-2,6-naphthyridine-2-carboxamide formic acid]
[5]
  IC50: > 1000 nM
BRD9 bromodomain
  IC50: > 100 nM

## CNC(=O)N1CCc2c(c(-c3cc(OC)c(CN(C)CC(=O)NCCOCCOc4cccc5c4C(=O)N(C4CCC(=O)NC4=O)C5=O)c(OC)c3)cn(C)c2=O)C1 (stereo not shown) [Compound D24, 8-(4-(((2-((2-(2-((2-(2,6-dioxopiperidin-3-yl)-1,3-dioxoisoindolin-4-yl)oxy)ethoxy)ethyl)amino)-2-oxoethyl)(methyl)amino)methyl)-3,5-dimethoxyphenyl)-N,6-dimethyl-5-oxo-3,4,5,6-tetrahydro-2,6-naphthyridine-2 (1H)-carboxamide]
[5]
  IC50: > 1000 nM
BRD9 bromodomain
  IC50: > 100 nM

## CNC(=O)N1CCc2c(-c3cc(OC)c(CN4CCC5(CC4)CN(C(=O)CCCCOc4ccc6c(c4)C(=O)N(C4CCC(=O)NC4=O)C6=O)CCO5)c(OC)c3)cn(C)c(=O)c2C1 (stereo not shown) [Compound D31, 5-(4-((4-(5-((2-(2,6-dioxopiperidin-3-yl)-1,3-dioxoisoindolin-5-yl)oxy)pentanoyl)-1-oxa-4,9-diazaspiro[5.5]undecan-9-yl)methyl)-3,5-dimethoxyphenyl)-N,7-dimethyl-8-oxo-3,4,7,8-tetrahydro-2,7-naphthyridine-2 (1H)-carboxamide formic acid]
[5]
  IC50: > 10 nM
BRD9 bromodomain
  IC50: < 10 nM

## COc1cc(-c2cn(C)c(=O)c3c2CCN(C(=O)NCCCCCOc2ccc4c(c2)C(=O)N(C2CCC(=O)NC2=O)C4=O)C3)cc(OC)c1CN(C)C (stereo not shown) [Compound D22, formic acid]
[5]
  IC50: < 10 nM
BRD9 bromodomain
  IC50: < 10 nM

## COc1cc(-c2cn(C)c(=O)c3cnccc23)cc(OC)c1CN(C)CC(=O)NCCOCCOCCNc1cccc2c1C(=O)N(C1CCC(=O)NC1=O)C2=O (stereo not shown) [Compound 1]
SYO1 cells [6]
  numbers of early- and late-apoptotic cells: increased numbers of early- and late-apoptotic cells
[1]; all synovial cell lines
  growth inhibition compared with the other treatments: most significant growth inhibition
[1]
  inhibition of the growth of the cells: inhibition of the growth of the cells
[2]
  inhibition of the growth of the cells: inhibition of the growth of the cells
[3]
  inhibition of the growth of the cells: does not result in inhibition of the growth
SYO1 cells [7]
  numbers of cells in the S-phase of the cell cycle: reduced numbers of cells in the S-phase
[4]
  inhibition of the growth of the cells: did not result in inhibition of the growth
